# Measured values: US4678750A, “Method and compositions for use in the treatment of fireblight” (Microlife Technics, Inc., priority 1984, dated 1987)
# Test system: depolymerase from phage-infected E. amylovora NCPPB595
# Experiment: Effect of chemical agents on depolymerase activity (galactose release from polysaccharide)
# Assay type: biochemical, phage ERA103 / Erwinia amylovora NCPPB595
# Details: for Effect of agent on depolymerase activity (in words): Table 2; for Activity % Control: control assay without inhibitors
# Procedure: Depolymerase activity was assayed by following the release of galactose from the polysaccharide substrate according to the method of Fairbridge (Fairbridge,R. A., et al. Biochem. J. 49:423-427 (1951)). The reaction mixture consisted of the following: 100 microliters of the appropriate enzyme solution and 100 microliters of polysaccharide (10 mg/ml) suspended in 0.01M citrate buffer, pH 6.0 containing 0.01M 2-mercaptoethanol. One unit of enzyme was defined as the amount of enzyme required to produce 1 micromole of galactose per minute under standard assay conditions.
# Substrate Preparation. Polysaccharide was prepared from uninfected cultures of Erwinia amylovora NCPPB595 cultivated on sheets of cellophane overlaying Tryptic Soy agar, as decribed by Liu (Liu, P.V., et al., J. Infect. Dis. 108:218-228 (1961)). The polysaccharide was extracted from the slime layer according to the method of Liu.
# The effect of various chemical agents on depolymerase activity can be seen in Table 2.
# [1] = agent 10.0 millimoles per liter
Compound,Effect of agent on depolymerase activity (in words),Activity % Control (agent 0.1 millimoles per liter),Activity % Control (agent 1.0 millimoles per liter),Activity % Control [1]
"CCN1C(=O)C=CC1=O [N--ethylmaleimide, N-ethylmaleimide]",no efect on enzymatic activity,100 % Control,100 % Control,100 % Control
[N-]=[N+]=[N-] [Sodium azide],insensitive,100 % Control,100 % Control,100 % Control
Oc1cccc2cccnc12 [8-hydroxyquinoline],insensitive,,,
O=C(O)CI [Iodoacetate],no efect on enzymatic activity,100 % Control,100 % Control,100 % Control
ethylene-di-(o-hydroxyphenylacetate),insensitive,100 % Control,100 % Control,100 % Control
O=C(O)c1cc[c]([Hg][Cl])cc1 [p-Chloromercuribenzoate],inhibited the enzyme at all concentrations tested,0 % Control,0 % Control,0 % Control
OCCS [2-Mercaptoethanol],enhanced depolymerase activity substantially,122 % Control,155 % Control,168 % Control
"OC(CS)C(O)CS (centres unmarked) [Dithiothreitol, 1,4 dimercapto-2,3-butanediol]",enhanced depolymerase activity substantially,122 % Control,138 % Control,258 % Control
